As a reminder, the inhibition is the change of the read-out against control, counted positive when it falls. The IC50 is the concentration needed to halve the response being measured.

The structures appear in SMILES notation.

The assay has as its target T1, human 11βHSD1 enzyme (Homo sapiens, UniProt P28845).
T1 construct: baculovirus expressed N terminal 6-His tagged full length human 11βHSD1 enzyme; 6-His (N); made in house
Description: 11βHSD1 cortisone to cortisol conversion, competitive HTRF assay. The format is biochemical. As to conditions: for inhibition at 30 µM: human 11-βHSD, test concentration of 30 μM of compound; for IC50: recombinant N terminal 6-His tagged full length human 11βHSD1, cortisone 160 nM, 25 minutes at 37° C. In short, it runs like this: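 Enzyme was baculovirus-expressed, N-terminal 6-His-tagged full-length human 11βHSD1, purified on a copper chelate column. Compounds were added in buffer containing 1% DMSO at 10-fold final concentration.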
In general terms: TR-FRET usually uses a lanthanide donor and a delayed reading to cut background.

T1 sequence (P28845 whole entry): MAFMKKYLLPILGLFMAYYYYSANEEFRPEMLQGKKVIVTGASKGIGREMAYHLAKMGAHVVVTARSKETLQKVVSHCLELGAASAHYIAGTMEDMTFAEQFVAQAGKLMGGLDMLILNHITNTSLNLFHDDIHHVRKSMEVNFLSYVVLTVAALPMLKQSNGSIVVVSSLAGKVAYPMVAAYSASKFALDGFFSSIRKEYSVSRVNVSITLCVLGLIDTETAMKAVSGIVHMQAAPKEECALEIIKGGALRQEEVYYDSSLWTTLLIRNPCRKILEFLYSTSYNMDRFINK

With `COc1ncc(C(=O)NC2C3CC4CC2CC(O)(C4)C3)c(C2(C)CC2)n1` (stereo not shown) [Example 187, N-[(2r,5 s)-5-hydroxyadamantan-2-yl]-2-methoxy-4-(1-methylcyclopropyl)pyrimidine-5-carboxamide], the inhibition at 30 µM amounted to 99%. On the same count and under the same terms, the result for `O=C(N[C@H]1C2CC3CC1C[C@@](O)(C3)C2)c1cnc(N2CCOCC2CO)nc1C1CC1` (stereo partly shown) [Example 60, 4-cyclopropyl-N-[(2r,5s)-5-hydroxyadamantan-2-yl]-2-[3-(hydroxymethyl)morpholin-4-yl]pyrimidine-5-carboxamide] reads 95.1%; that for `O=C(N[C@H]1C2CC3CC1C[C@@](O)(C3)C2)c1cnc(N2CCC[S+]([O-])CC2)nc1C1CC1` (stereo partly shown) [Example 44, 4-Cyclopropyl-N-[(2r,5s)-5-hydroxyadamantan-2-yl]-2-(1-oxo-1,4-thiazepan-4-yl)pyrimidine-5-carboxamide], 98%. Same read-out and setting: the value for `O=C(N[C@H]1C2CC3CC1C[C@](O)(C3)C2)c1cnc(NC2CCCC2)nc1C1CCCC1` [Example 130, 4-cyclopentyl-2-(cyclopentylamino)-N-[(2r,5s)-5-hydroxyadamantan-2-yl]pyrimidine-5-carboxamide] was 96.1%. As to `O=C(N[C@H]1C2CC3CC1C[C@@](O)(C3)C2)c1cncnc1C1CC1` [Example 3, 4-cyclopropyl-N-[(2r,5s)-5-hydroxyadamantan-2-yl]pyrimidine-5-carboxamide], the inhibition at 30 µM is 106% and the IC50 is 370 nM.

As to `CNc1ncc(C(=O)N[C@H]2C3CC4CC2C[C@@](O)(C4)C3)c(C2CC(F)(F)C2)n1` [Example 154, 4-(3,3-difluorocyclobutyl)-N-[(2r,5s)-5-hydroxyadamantan-2-yl]-2-methylaminopyrimidine-5-carboxamide], the inhibition at 30 µM was determined as 88%. On to `Cc1ncc(C(=O)N[C@H]2C3CC4CC2C[C@@](O)(C4)C3)c(C2CCCO2)n1` (stereo partly shown) [Example 158, N-[(2r,5s)-5-hydroxyadamantan-2-yl]-2-methyl-4-(oxolan-2-yl)pyrimidine-5-carboxamide], for which the inhibition at 30 µM worked out at 96.5%. The same measure, in the same setting: the value for `CCOc1nc(NC2CC2)ncc1C(=O)N[C@H]1C2CC3CC1C[C@@](O)(C3)C2` [Example 210, 2-(cyclopropylamino)-4-ethoxy-N-[(2r,5s)-5-hydroxytricyclo[3.3.1.13,7]dec-2-yl]pyrimidine-5-carboxamide] was 97.2%; that for `O=C(N[C@H]1C2CC3CC1C[C@@](O)(C3)C2)c1cnc(NC2CC2)nc1C1CC(F)(F)C1` [Example 155, 2-(cyclopropylamino)-4-(3,3-difluorocyclobutyl)-N-[(2r,5s)-5-hydroxyadamantan-2-yl]pyrimidine-5-carboxamide] was 92.6%.

As to `CC(C)Nc1ncc(C(=O)N[C@H]2C3CC4CC2C[C@@](O)(C4)C3)c(C2CCCO2)n1` (stereo partly shown) [Example 159, N-[(2r,5s)-5-hydroxyadamantan-2-yl]-4-(oxolan-2-yl)-2-(propan-2-ylamino)pyrimidine-5-carboxamide], the inhibition at 30 µM is 98.2%.

Consider `O=C(N[C@H]1C2CC3CC1C[C@@](O)(C3)C2)c1cnc(NC2CCS(=O)(=O)CC2)nc1C1CC1` [Example 68, 4-cyclopropyl-2-[(1,1-dioxidotetrahydro-2H-thiopyran-4-yl)amino]-N-[(2r,5s)-5-hydroxyadamantan-2-yl]pyrimidine-5-carboxamide], for which the inhibition at 30 µM came out at 98.3%. As to `CCCSc1nc(N2CCN(C(C)=O)CC2)ncc1C(=O)N[C@H]1C2CC3CC1C[C@@](O)(C3)C2` [Example 26, 2-(4-Acetylpiperazin-1-yl)-N-[(2r,5 s)-5-hydroxyadamantan-2-yl]-4-propylsulfanylpyrimidine-5-carboxamide], the inhibition at 30 µM was found to be 89%. As for `O=C(N[C@H]1C2CC3CC1C[C@@](O)(C3)C2)c1cnc(N2CCC2)nc1N1CCC1` [Example 201, 2,4-bis(azetidin-1-yl)-N-[(2r,5s)-5-hydroxyadamantan-2-yl]pyrimidine-5-carboxamide], the inhibition at 30 µM was 95%. With `O=C(N[C@H]1C2CC3CC1C[C@@](O)(C3)C2)c1cnc(NCCO)nc1C1CC1` [Example 69, 4-cyclopropyl-N-[(2r,5s)-5-hydroxyadamantan-2-yl]-2-[(2-hydroxyethyl)amino]pyrimidine-5-carboxamide], the inhibition at 30 µM came out at 102%. In the case of `CCCSc1nc(N2CCC[C@@H](CC(=O)OC)C2)ncc1C(=O)NC1CCCCC1` [Example 19, (S)-Methyl 2-(1-(5-(cyclohexylcarbamoyl)-4-(propylthio)pyrimidin-2-yl)piperidin-3-yl)acetate], the inhibition at 30 µM worked out at 100% and the IC50 stood at 14 nM. As to `CC(C)N1CCN(c2ncc(C(=O)N[C@H]3C4CC5CC3C[C@@](O)(C5)C4)c(C3CCCC3)n2)CC1=O` [Example 127, 4-cyclopentyl-N-[(2r,5s)-5-hydroxyadamantan-2-yl]-2-(3-oxo-4-propan-2-ylpiperazin-1-yl)pyrimidine-5-carboxamide], the inhibition at 30 µM was found to be 103%. Consider `CCCSc1ncc(C(=O)N[C@H]2C3CC4CC2C[C@@](O)(C4)C3)c(SCCC)n1` [Example 16, N-[(2r,5s)-5-hydroxyadamantan-2-yl]-2,4-bis(propylsulfanyl)pyrimidine-5-carboxamide], for which the inhibition at 30 µM worked out at 95.8% and the IC50 was 2 nM. On to `CSc1ncc(C(=O)N[C@H]2C3CC4CC2C[C@@](O)(C4)C3)c(C2CC2)n1` [Example 11, 4-Cyclopropyl-N-[(2r,5s)-5-hydroxyadamantan-2-yl]-2-methylsulfanyl-pyrimidine-5-carboxamide], for which the inhibition at 30 µM is 97.5% and the IC50 amounted to 70 nM. Take `CC(C)Nc1ncc(C(=O)N[C@H]2C3CC4CC2C[C@@](O)(C4)C3)c([C@@H]2CCCO2)n1` [Example 179, N-[(2r,5s)-5-hydroxyadamantan-2-yl]-4-[(2S)-oxolan-2-yl]-2-(propan-2-ylamino)pyrimidine-5-carboxamide]: the inhibition at 30 µM stood at 95.1%. The same measure, in the same setting: the result for `O=C(N[C@H]1C2CC3CC1C[C@@](O)(C3)C2)c1cnc(N2CCOCC2CO)nc1C1CCC1` (stereo partly shown) [Example 90, 4-cyclobutyl-N-[(2r,5s)-5-hydroxyadamantan-2-yl]-2-[3-(hydroxymethyl)morpholin-4-yl]pyrimidine-5-carboxamide] reads 100%; that for `O=C(N[C@H]1C2CC3CC1C[C@@](O)(C3)C2)c1cnc(OC2CCC2)nc1C1CC(F)(F)C1` [Example 157], 87.1%; that for `O=C(N[C@H]1C2CC3CC1C[C@@](O)(C3)C2)c1cnc(N2CC[S+]([O-])CC2)nc1C1CCCC1` [Example 115, 4-Cyclopentyl-N-[(2r,5 s)-5-hydroxyadamantan-2-yl]-2-(1-oxo-1,4-thiazinan-4-yl)pyrimidine-5-carboxamide], 93.4%. Turning to `O=C(c1cnc(N2CCOCC2)nc1C1CC1)N1CCC(c2cccnc2)C1` (stereo not shown) [Example 79, (4-Cyclopropyl-2-morpholinopyrimidin-5-yl)(3-(pyridin-3-yl)pyrrolidin-1-yl)methanone], the inhibition at 30 µM is 89.7%. Regarding `CCCSc1ncc(C(=O)N[C@H]2C3CC4CC2C[C@@](O)(C4)C3)c(N2CCN(C(C)=O)CC2)n1` [Example 25, 4-(4-Acetylpiperazin-1-yl)-N-[(2r,5 s)-5-hydroxyadamantan-2-yl]-2-propylsulfanylpyrimidine-5-carboxamide], the inhibition at 30 µM is 101%.

Source of the values: patent US20090264401A1, “SUBSTITUTED PYRIMIDIN-5-CARBOXAMIDES 281” (AstraZeneca AB, priority 2008, published 2009).
